By IC50 is commonly meant the concentration at which inhibition is half-maximal.

The assay has as its target T1, Sortase A (SrtA) (Staphylococcus aureus, UniProt Q2FV99).
T1 construct: pET28a-SrtA, recombinant, nickel-purified
Kind of assay: FRET cleavage assay with purified recombinant SrtA; reversible by dilution; binding supported by fluorescence quenching (KA […] L/mol). It counts as biochemical.

T1 sequence (Q2FV99 whole entry): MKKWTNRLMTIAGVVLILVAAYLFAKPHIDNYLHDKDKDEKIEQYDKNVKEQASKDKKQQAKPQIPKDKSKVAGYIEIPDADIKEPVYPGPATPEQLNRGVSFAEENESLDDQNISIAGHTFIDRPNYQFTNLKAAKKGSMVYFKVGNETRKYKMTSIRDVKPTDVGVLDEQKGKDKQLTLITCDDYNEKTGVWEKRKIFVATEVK

On to `O=C1C[C@@H](c2ccc(O)c(O)c2)Oc2cc(O)cc(O)c21` [eriodictyol], for which the IC50 is 7.73 µM.

Values taken from article PMC7929976, “Eriodictyol as a Potential Candidate Inhibitor of Sortase A Protects Mice From Methicillin-Resistant Staphylococcus aureus-Induced Pneumonia” (Frontiers in Microbiology, 2021).
